The test system of test [1] is primary human fibroblasts derived from IPF patients (LL29 cells). Put plainly: Inhibition of the fibrotic process in TGF-β1 treated IPF patient fibroblasts (αSMA staining). Type of test: cell-based. The note with it: Fibroblast, 96 h, LL29 cells treated with TGF-β1 (20 ng/mL), 4 days, read-out: Inhibition of fibrosis EC50. The text has this: The above synthesized compounds were screened using primary human fibroblasts (derived from IPF patients) treated with TGF-β1 to determine their ability to inhibit the fibrotic process.
Primary human fibroblasts derived from IPF patients (LL29 cells) [^1Xiaoqiu Liu, et. al., “Fibrotic Lung Fibroblasts Show Blunted Inhibition by cAMP Due to Deficient cAMP Response Element-Binding Protein Phosphorylation”, Journal of Pharmacology and Experimental Therapeutics (2005), 315(2), 678-687; ^2Watts, K. L., et. al., “RhoA signaling modulates cyclin D1 expression in human lung fibroblasts; implications for idiopathic pulmonary fibrosis”, Respiratory Research (2006), 7(1), 88] were obtained from American Type Culture Collection (ATCC) and expanded in F12 medium supplemented with 15% Fetal Bovine Serum and Penicillin/Streptomycin.
Each compound was dissolved in DMSO as a 10 mM stock and used to prepare compound source plates. Serial dilution (1:2, 11-point dose-response curves from 10 μM to 1.87 nM) and compound transfer was performed using the ECHO 550 (Labcyte, Sunnyvale, Calif.) into 384-well clear bottom assay plates (Greiner Bio-One) with appropriate DMSO backfill for a final DMSO concentration of 0.1%. LL29 cells were plated at 1,500 cells/well in 80 μl/well F12 medium supplemented with 1% Fetal Bovine Serum. One hour after addition of the cells, TGF-β1 (Peprotech; 20 ng/mL) was added to the plates to induce fibrosis (ref. 1 and 2 above). Wells treated with TGF-β1 and containing DMSO were used as controls. Cells were incubated at 37° C. and 5% CO2 for 4 days. Following incubation for 4 days, SYTOX green nucleic acid stain (Life Technologies [Thermo Fisher Scientific]) was added to the wells at a final concentration of 1 uM and incubated at room temperature for 30 min. Cells were then fixed using 4% formaldehyde (Electron Microscopy Sciences), washed 3 times with PBS followed by blocking and permeabilization using 3% Bovine Serum Albumin (BSA; Sigma) and 0.3% Triton X-100 (Sigma) in PBS. Cells were then stained with antibody specific to α-smooth muscle actin (αSMA; Abcam) (ref. 1 and 2 above) in 3% Bovine Serum Albumin (BSA; Sigma) and 0.3% Triton X-100 (Sigma) in PBS, and incubated overnight at 4° C. Cells were then washed 3 times with PBS, followed by incubation with Alexa Flor-647 conjugated secondary antibody (Life Technologies [Thermo Fisher Scientific]) and DAPI at room temperature for 1 hour. Cells were then washed 3 times with PBS and plates were sealed for imaging. αSMA staining was imaged by excitation at 630 nm and emission at 665 nm and quantified using the Compartmental Analysis program on the CellInsight CX5 (Thermo Scientific). Dead or apoptotic cells were excluded from analysis based on positive SYTOX green staining. % of total cells positive for αSMA were counted in each well and normalized to the average of 11 wells treated with TGF-β1 on the same plate using Dotmatics' Studies Software. The normalized averages (fold change over untreated) of 3 replicate wells for each compound concentration were used to create dose-responses curves and EC50 values were calculated using non-linear regression curve fit in the Dotmatics' Studies Software. The EC50 values are reported.

Test [2] has as its system Wnt activity (SW480 colon carcinoma cells stably expressing the Sp5-Luc reporter gene). Briefly: Sp5-Luc reporter gene screening assay for Wnt activity. Type of test: cell-based. To be noted: Homo sapiens. The text has this: The screening assay for Wnt activity is described as follows. Reporter cell lines can be generated by stably transducing cancer cell lines (e.g., colon cancer) or primary cells (e.g., IEC-6 intestinal cells) with a lentiviral construct that includes a Wnt-responsive promoter driving expression of the firefly luciferase gene.
SW480 colon carcinoma cells were transduced with a lentiviral vector expressing luciferase with a human Sp5 promoter consisting of a sequence of eight TCF/LEF binding sites. SW480 cells stably expressing the Sp5-Luc reporter gene and a hygromycin resistance gene were selected by treatment with 150 μg/ml of hygromycin for 7 days. These stably transduced SW480 cells were expanded in cell culture and used for all further screening activities. For Sp5-Luc reporter gene assays, the cells were plated at 10,000 cells/well in 96-well plates with growth medium containing 10% fetal calf serum and incubated overnight at 37° C. and 5% CO2. Each compound was dissolved in DMSO as a 10 mM stock in standard j-vials and used to prepare compound source plates in dose-response format with 3-fold serial dilutions and a 10 mM top concentration. Compound transfer from serially diluted source plates to assay plates containing the cells was accomplished using a pintool (Multimek 96, Beckman equipped with V&P Scientific FP1S50H pins) based liquid handling protocol. This protocol used a slotted pin to transfer 50 nl of compound from a source plate well to an assay plate well containing 50 μl of cells in growth medium. […] Control wells received 50 nl of DMSO treatment for normalization and calculating IC50 values. The treated cells were incubated at 37° C. and 5% CO2 for an additional forty-two hours. Following incubation, the growth medium was removed and 50 μl of BrightGlo luminescence reagent (Promega) was added to each well of the 96-well assay plates. The plates were placed on an orbital shaker for 5 min and then luminescence was quantified on the Victor3 (Perkin Elmer) plate reader. Readings were normalized to DMSO only treated cells, and normalized activities were utilized for IC50 calculations using the dose-response log (inhibitor) vs. response -variable slope (four parameters) nonlinear regression feature available in GraphPad Prism 5.0 or 6.0.
In general terms: Reporter assays use an easily measured gene product as a stand-in for the process of interest.

What is called EC50 is the concentration needed to bring the measured effect to its halfway point. Broadly, the IC50 is the point on the concentration scale where inhibition reaches its midpoint. A higher IC50 goes with weaker potency in that assay. For `O=C(Cc1ccccc1)Nc1cncc(-c2cnc3[nH]nc(-c4nc5cccnc5[nH]4)c3c2)c1` [Compound 216, N-(5-(3-(3H-Imidazo[4,5-b]pyridin-2-yl)-1H-pyrazolo[3,4-b]pyridin-5-yl)pyridin-3-yl)-2-phenylacetamide], in test [1], the EC50 is not below 9990 nM. The IC50 in test [2] was found to be 751 nM.

Consider `CN(C)c1cncc(-c2cnc3[nH]nc(-c4nc5c(N6CCCCC6)ccnc5[nH]4)c3c2)c1` [Compound 139, N,N-Dimethyl-5-(3-(7-(piperidin-1-yl)-3H-imidazo[4,5-b]pyridin-2-yl)-1H-pyrazolo[3,4-b]pyridin-5-yl)pyridin-3-amine], for which the EC50 in test [1] was not below 9990 nM. Besides, the concentration for half-maximal inhibition (IC50) in test [2] was determined as 384 nM.

Regarding `c1ccc(-c2ccnc3[nH]c(-c4n[nH]c5ncc(-c6cncc(CNCC7CCCC7)c6)cc45)nc23)nc1` [Compound 130, 1-Cyclopentyl-N-((5-(3-(7-(pyridin-2-yl)-3H-imidazo[4,5-b]pyridin-2-yl)-1H-pyrazolo[3,4-b]pyridin-5-yl)pyridin-3-yl)methyl)methanamine], the EC50 in test [1] was not above 9 nM. This compound came in with an IC50 in test [2] of 633 nM.

On to `CN(C)CCOc1cncc(-c2cnc3[nH]nc(-c4nc5c(-c6cccc(F)c6)ccnc5[nH]4)c3c2)c1` [Compound 919, 2-((5-(3-(7-(3-Fluorophenyl)-3H-imidazo[4,5-b]pyridin-2-yl)-1H-pyrazolo [3,4-b]pyridin-5-yl)pyridin-3-yl)oxy)-N,N-dimethylethan-1-amine], for which the EC50 in test [1] is not above 9 nM. The same compound registered an IC50 in test [2] of more than 10000 nM.

For the compound `CN1CCN(c2ccnc3[nH]c(-c4n[nH]c5ncc(-c6cncc(N)c6)cc45)nc23)CC1` [Compound 186, 5-(3-(7-(4-Methylpiperazin-1-yl)-3H-imidazo[4,5-b]pyridin-2-yl)-1H-pyrazolo[3,4-b]pyridin-5-yl)pyridin-3-amine], the EC50 in test [1] was not below 9990 nM. For the same compound, the IC50 in test [2] was more than 10000 nM.

In the case of `O=C(Nc1cncc(-c2cnc3[nH]nc(-c4nc5c(-c6cccs6)ccnc5[nH]4)c3c2)c1)C1CC1` [Compound 303, N-(5-(3-(7-(Thiophen-2-yl)-3H-imidazo[4,5-b]pyridin-2-yl)-1H-pyrazolo[3,4-b]pyridin-5-yl)pyridin-3-yl)cyclopropanecarboxamide], the EC50 in test [1] was not below 9990 nM. In test [2], this compound gave an IC50 of 7.7 nM.

Turning to `c1cncc(-c2cnc3[nH]nc(-c4nc5c(-c6cccnc6)ccnc5[nH]4)c3c2)c1` [Compound 68, 5-(Pyridin-3-yl)-3-(7-(pyridin-3-yl)-3H-imidazo[4,5-b]pyridin-2-yl)-1H-pyrazolo[3,4-b]pyridine], in test [1], the half-maximal effective concentration (EC50) was not below 9990 nM. The compound also came in with an IC50 in test [2] of more than 10000 nM.

With `CC(C)Nc1cncc(-c2cnc3[nH]nc(-c4nc5c(-c6cc(F)cc(NCCN(C)C)c6)ccnc5[nH]4)c3c2)c1` [Compound 426, N^1-(3-Fluoro-5-(2-(5-(5-(isopropylamino)pyridin-3-yl)-1H-pyrazolo [3,4-b]pyridin-3-yl)-3H-imidazo[4,5-b]pyridin-7-yl)phenyl)-N^2,N^2-dimethylethane-1,2-diamine], in test [1], the EC50 came out at 287 nM. The compound also had an IC50 in test [2] of 129 nM.

For `Cc1ccc(-c2ccnc3[nH]c(-c4n[nH]c5ncc(-c6cncc(NC(=O)C7CCCC7)c6)cc45)nc23)s1` [Compound 357, N-(5-(3-(7-(5-Methylthiophen-2-yl)-3H-imidazo[4,5-b]pyridin-2-yl)-1H-pyrazolo[3,4-b]pyridin-5-yl)pyridin-3-yl)cyclopentanecarboxamide], in test [1], the EC50 was determined as 1390 nM. Also, in test [2], half-maximal inhibition (IC50) was put at 8 nM.

Turning to `CC(C)C(=O)Nc1cncc(-c2cnc3[nH]nc(-c4nc5c(N6CCN(C)CC6)ccnc5[nH]4)c3c2)c1` [Compound 192, N-(5-(3-(7-(4-Methylpiperazin-1-yl)-3H-imidazo[4,5-b]pyridin-2-yl)-1H-pyrazolo[3,4-b]pyridin-5-yl)pyridin-3-yl)isobutyramide], in test [1], the EC50 was not above 9 nM. The IC50 in test [2] is more than 10000 nM.

As for `Fc1cccc(-c2ccnc3[nH]c(-c4n[nH]c5ncc(-c6cnccn6)cc45)nc23)c1` [Compound 926, 3-(7-(3-Fluorophenyl)-3H-imidazo[4,5-b]pyridin-2-yl)-5-(pyrazin-2-yl)-1H-pyrazolo[3,4-b]pyridine], in test [1], the concentration giving a half-maximal response (EC50) is 13 nM. For the same compound, in test [2], the IC50 was more than 10000 nM.

With `Oc1cncc(-c2cnc3[nH]nc(-c4nc5c(-c6cccc(F)c6)ccnc5[nH]4)c3c2)c1` [Compound 921, 5-(3-(7-(3-Fluorophenyl)-3H-imidazo[4,5-b]pyridin-2-yl)-1H-pyrazolo[3,4-b]pyridin-5-yl)pyridin-3-ol], the EC50 in test [1] worked out at 164 nM. The compound further registered an IC50 in test [2] of 27 nM.

As to `CCCC(=O)Nc1cncc(-c2cnc3[nH]nc(-c4nc5c(-c6ccncc6)ccnc5[nH]4)c3c2)c1` [Compound 102, N-(5-(3-(7-(Pyridin-4-yl)-3H-imidazo[4,5-b]pyridin-2-yl)-1H-pyrazolo[3,4-b]pyridin-5-yl)pyridin-3-yl)butyramide], in test [1], the EC50 was not below 9990 nM. In test [2], this compound showed an IC50 of 2380 nM.

Turning to `O=C(Nc1cncc(-c2cnc3[nH]nc(-c4nc5c(-c6ccsc6)ccnc5[nH]4)c3c2)c1)c1ccccc1` [Compound 243, N-(5-(3-(7-(Thiophen-3-yl)-3H-imidazo[4,5-b]pyridin-2-yl)-1H-pyrazolo[3,4-b]pyridin-5-yl)pyridin-3-yl)benzamide], the EC50 in test [1] amounted to 113 nM. In test [2], this compound had an IC50 of 33 nM.

`FC1(F)CCN(Cc2cncc(-c3cnc4[nH]nc(-c5nc6c(N7CCCCC7)ccnc6[nH]5)c4c3)c2)C1` [Compound 157, 5-(5-((3,3-Difluoropyrrolidin-1-yl)methyl)pyridin-3-yl)-3-(7-(piperidin-1-yl)-3H-imidazo[4,5-b]pyridin-2-yl)-1H-pyrazolo[3,4-b]pyridine]: the concentration for a half-maximal effect (EC50) in test [1] is not above 9 nM. In test [2], this compound returned an IC50 of 4210 nM.

Turning to `Cc1ccncc1-c1cnc2[nH]nc(-c3nc4c(-c5ccncc5)ccnc4[nH]3)c2c1` [Compound 91, 5-(4-Methylpyridin-3-yl)-3-(7-(pyridin-4-yl)-3H-imidazo[4,5-b]pyridin-2-yl)-1H-pyrazolo[3,4-b]pyridine], the EC50 in test [1] is not below 9990 nM. The same compound came in with an IC50 in test [2] of more than 10000 nM.

Consider `CN(C)CC(=O)Nc1cncc(-c2cnc3[nH]nc(-c4nc5c(-c6cccc(F)c6)ccnc5[nH]4)c3c2)c1` [Compound 1409, 2-(Dimethylamino)-N-(5-(3-(7-(3-fluorophenyl)-3H-imidazo[4,5-b]pyridin-2-yl)-1H-pyrazolo[3,4-b]pyridin-5-yl)pyridin-3-yl)acetamide], for which the EC50 in test [1] is not above 9 nM. It took 3990 nM to reach half-maximal inhibition in test [2] (IC50).

The values above are taken from patent publication US10526347B2, “3-(3H-imidazo[4,5-B]pyridin-2-yl)-1H-pyrazolo[3,4-B]pyridine and therapeutic uses thereof” (Samumed, LLC, priority 2014, dated 2020).
